Literature values, collected in patent publication US9579404B2, “Lanthanoid complex capsule and particle contrast agents, methods of making and using thereof” (New York University, priority 2011, dated 2017).

Conditions: in H2O at 9.4 T (400 MHz), 25° C.; from Siddiqui et al. 2009

## O=C([O-])CN(CCN(CC(=O)[O-])CC(=O)[O-])CCN(CC(=O)[O-])CC(=O)[O-].[Gd+3] [Gd[DTPA]^2−, gadolinium diethylenetriamine-N,N,N′,N″N″-pentaacetate]
  Relaxivity (r1) per Gd: 4.6^a s^−1mM^−1
